Counter-ions that a name gives are not always drawn. Non-standard residues stand in square brackets, D forms with d. Residues, ends and D or L forms follow the SMILES beside them. *: point of attachment. Cbz = O=C(OCc1ccccc1)*; Bn = c1ccc(C*)cc1
Target: T1, rat brain farnesyl protein transferase (Rattus norvegicus, UniProt Q02293+Q04631)
T1 construct: 40-fold purified rat brain farnesyl protein transferase; from tissue; host or cells: rat brain
Experiment: PFT inhibitory activity assay (3H-farnesyl pyrophosphate, biotinyl peptide, streptavidin beads)
Type: biochemical
Conditions: 30 mM potassium phosphate buffer pH 7.4; FPP 0.12 μM; (biotinyl)-Ahe-Tyr-Lys-Cys-Val-Ile-Met 0.1 μM; 37° C, 30 minutes
Description: The PFT inhibitory activity of compounds of Formula I was assayed in 30 mM potassium phosphate buffer, pH 7.4, containing 7 mM DTT, 1.2 MM MgCl2, 0.1 mM leupeptin, 0.1 mM pepstatin, and 0.2 mM phenylmethylsulfonyl fluoride. Assays were performed in 96 well plates (Wallec) and employed solutions composed of varying concentrations of a compound of Formula I in 100% DMSO. Upon addition of both substrates, radiolabeled farnesyl pyrophosphate ([1-^3 H], specific activity 15-30 Ci/mmol, final concentration 0.12 μM) and (biotinyl)-Ahe-Tyr-Lys-Cys-Val-Ile-Met peptide (final concentration 0.1 μM), the Seq ID NO:59 enzyme reaction was started by addition of 40-fold purified rat brain farnesyl protein transferase. After incubation at 37° C for 30 minutes, the reaction was terminated by diluting the reaction 2.5-fold with a stop buffer containing 1.5M magnesium acetate, 0.2M H3 PO4, 0.5% BSA, and strepavidin beads (Amersham) at a concentration of 1.3 mg/mL. After allowing the plate to settle for 30 minutes at room temperature, radioactivity was quantitated on a microBeta counter (model 1450, Wallec).

SMILES	IC50
C[C@@H](NC(=O)[C@H](COCc1ccccc1)NC(=O)[C@H](Cc1ccc(OCc2ccccc2)cc1)NC(=O)[C@H](Cc1c[nH]cn1)NC(=O)OCc1ccccc1)C(=O)O [Cbz--His--Tyr(OBn)--Ser(OBn)--DAla--OH, N-[N-[N-[N-[(Phenylmethoxy)carbonyl]-L-histidyl]-O-(phenylmethyl)-L-tyrosyl]-O-(phenylmethyl)-L-seryl]-D-alanine, monohydrochloride] (Cbz-HY(Bn)S(Bn)[dA]-OH)	404 nM
COC(=O)[C@@H](C)NC(=O)[C@H](COCc1ccccc1)NC(=O)[C@H](Cc1ccc(OCc2ccccc2)cc1)NC(=O)[C@H](Cc1c[nH]cn1)NC(=O)OCc1ccccc1 [Cbz--His--Tyr(OBn)--Ser(OBn)--DAla--OM2, N-[N-[N-[N-[(Phenylmethoxy)carbonyl]-L-histidyl]-O-(phenylmethyl)-L-tyrosyl]-O-(phenylmethyl)-L-seryl]-D-alanine, methyl ester] (Cbz-HY(Bn)S(Bn)[dA]-OMe)	142 nM

Reference: patent publication US5763577A, “Substituted tetra- and pentapeptide inhibitors of protein: farnesyl transferase” (Warner-Lambert Company, priority 1996, dated 1998)
